Consider 25 compounds from patent publication US6683078B2, “Use of sulfonyl aryl or heteroaryl hydroxamic acids and derivatives thereof as aggrecanase inhibitors” (priority 2001, dated 2004).

SMILES strings stand for the structures. Counter-ions that a name gives are not always drawn.

The target in series [1] is T1, Recombinant human MMP-1 (Homo sapiens, UniProt P03956).
T1 construct: made in house; host or cells: transfected HT-1080 cells
T1 sequence (P03956 100-469): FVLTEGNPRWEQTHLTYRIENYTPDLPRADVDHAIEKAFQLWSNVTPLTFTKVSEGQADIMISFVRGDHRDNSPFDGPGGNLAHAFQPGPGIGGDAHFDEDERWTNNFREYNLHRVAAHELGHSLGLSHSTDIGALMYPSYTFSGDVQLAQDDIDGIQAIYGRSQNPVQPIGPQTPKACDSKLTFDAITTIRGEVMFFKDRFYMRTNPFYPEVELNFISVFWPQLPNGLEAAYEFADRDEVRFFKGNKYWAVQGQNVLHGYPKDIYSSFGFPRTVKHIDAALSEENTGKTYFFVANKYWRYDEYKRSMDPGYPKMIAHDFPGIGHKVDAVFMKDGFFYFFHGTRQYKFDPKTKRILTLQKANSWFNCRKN
Kind of series: In vitro MMP inhibition, fluorogenic peptide substrate. The series is classed as biochemical.
Method: These enzymes were prepared in the Assignee's laboratories following usual laboratory procedures.
The MMP-1 was activated using 4-aminophenylmercuric acetate (APMA), and then purified over a hydroxamic acid column.
(§1) The enzyme substrate was a methoxycoumarin-containing polypeptide having the following sequence:
MCA-ProLeuGlyLeuDpaAlaArgNH2
(§2) Here, “MCA” is methoxycoumarin and “Dpa” is 3-(2,4-dinitrophenyl)-L-2,3-diaminopropionyl alanine.
(§3) These solutions were then compared to a control (which contained an equal amount of DMSO/buffer solution, but no hydroxamate compound) using Microfluor™ White Plates (Dynatech, Chantilly, Va.). More specifically, the MMPs were activated with APMA or trypsin. Then the various hydroxamate/DMSO/buffer solutions and control solutions were introduced into separate plates at room temperature with the activated MMP. After 10 minutes, 4 um of the MMP substrate was added to each plate. The plates were then incubated for 5 minutes at room temperature. […] Inhibition was measured as a reduction in fluorescent intensity as a function of inhibitor concentration using a Perkin Elmer (Norwalk, Conn.) L550 plate reader. The IC50's were then calculated from these measurements.

Series [2] addresses T2, Recombinant human MMP-2 (Homo sapiens, UniProt P08253).
T2 construct: made in house
T2 sequence (P08253 110-660): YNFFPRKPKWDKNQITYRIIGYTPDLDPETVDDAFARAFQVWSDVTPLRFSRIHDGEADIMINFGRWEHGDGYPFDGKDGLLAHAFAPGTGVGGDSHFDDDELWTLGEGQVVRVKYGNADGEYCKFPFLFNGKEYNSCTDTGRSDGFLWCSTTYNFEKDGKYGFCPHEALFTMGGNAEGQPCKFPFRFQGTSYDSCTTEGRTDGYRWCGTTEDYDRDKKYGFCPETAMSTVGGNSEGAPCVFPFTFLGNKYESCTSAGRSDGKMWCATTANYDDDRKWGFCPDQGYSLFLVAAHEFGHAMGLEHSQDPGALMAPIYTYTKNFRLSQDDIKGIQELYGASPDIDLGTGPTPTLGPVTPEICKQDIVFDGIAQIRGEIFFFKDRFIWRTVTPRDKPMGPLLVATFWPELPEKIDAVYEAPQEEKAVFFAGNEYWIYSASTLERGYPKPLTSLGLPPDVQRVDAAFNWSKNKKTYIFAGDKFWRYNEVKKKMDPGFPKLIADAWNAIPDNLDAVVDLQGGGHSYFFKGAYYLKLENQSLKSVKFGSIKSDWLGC
Described as above. The series is classed as biochemical.
From the text: as §1
MCA-ProLeuGlyLeuDpaAlaArgNH2
as §2, §3

Series [3] deals with T3, Recombinant human MMP-13 (Homo sapiens, UniProt P45452).
T3 construct: made in house; host or cells: baculovirus / insect cells
The series is described as above. Type of series: biochemical.
From the text: The expressed proenzyme was first purified over a heparin agarose column, and then over a chelating zinc chloride column. The proenzyme was then activated by APMA for use in the assay.
as §1
MCA-ProLeuGlyLeuDpaAlaArgNH2
as §2, §3

Series [4] has as its target T4, Recombinant human MMP-8 (Homo sapiens, UniProt P22894).
T4 construct: made in house
The description is as above. Type of series: biochemical. The note with it: Table B.
Method: (§4) These enzymes were prepared in the Assignee's laboratories following usual laboratory procedures. Specifics for preparing and using these enzymes can be found in the scientific literature describing these enzymes.
as §1
MCA-ProLeuGlyLeuDpaAlaArgNH2
as §2, §3

Series [5] addresses T5, Recombinant human MMP-3 (Homo sapiens, UniProt P08254).
T5 construct: made in house
Described as above. The series is classed as biochemical. The note with it: Table B.
Method: as §4, §1
MCA-ProLeuGlyLeuDpaAlaArgNH2
as §2, §3

In series [6] the target is T6, Recombinant human MMP-9 (Homo sapiens, UniProt P14780).
T6 construct: made in house
Described as above. The series is classed as biochemical. The following applies: Table B.
Method: as §1
MCA-ProLeuGlyLeuDpaAlaArgNH2
as §2
More specifically, the MMPs were activated with APMA or trypsin. […] After 10 minutes, 4 um of the MMP substrate was added to each plate. The plates were then incubated for 5 minutes at room temperature. […] Inhibition was measured as a reduction in fluorescent intensity as a function of inhibitor concentration using a Perkin Elmer (Norwalk, Conn.) L550 plate reader. The IC50's were then calculated from these measurements.

Series [7] concerns the target T7, Recombinant human MMP-14 (Homo sapiens, UniProt P50281).
T7 construct: made in house
Described as above. The series is classed as biochemical. The following applies: Table B.
Method: as §4, §1
MCA-ProLeuGlyLeuDpaAlaArgNH2
as §2, §3

For series [8], the system named is solid tumor cancers (colorectal, pancreatic, ovarian, and prostate). The following applies: cited from earlier work.

T5 sequence (P08254 100-477): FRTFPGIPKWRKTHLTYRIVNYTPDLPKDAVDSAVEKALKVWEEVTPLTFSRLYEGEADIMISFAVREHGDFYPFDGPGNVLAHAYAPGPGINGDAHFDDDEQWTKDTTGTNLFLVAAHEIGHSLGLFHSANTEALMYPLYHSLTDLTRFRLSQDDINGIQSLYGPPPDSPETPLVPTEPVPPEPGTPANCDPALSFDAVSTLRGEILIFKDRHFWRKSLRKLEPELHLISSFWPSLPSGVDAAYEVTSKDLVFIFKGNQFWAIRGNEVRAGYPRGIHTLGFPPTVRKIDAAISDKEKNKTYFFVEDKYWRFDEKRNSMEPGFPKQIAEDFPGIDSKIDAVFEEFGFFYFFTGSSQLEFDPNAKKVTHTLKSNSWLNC
T4 sequence (P22894 101-467): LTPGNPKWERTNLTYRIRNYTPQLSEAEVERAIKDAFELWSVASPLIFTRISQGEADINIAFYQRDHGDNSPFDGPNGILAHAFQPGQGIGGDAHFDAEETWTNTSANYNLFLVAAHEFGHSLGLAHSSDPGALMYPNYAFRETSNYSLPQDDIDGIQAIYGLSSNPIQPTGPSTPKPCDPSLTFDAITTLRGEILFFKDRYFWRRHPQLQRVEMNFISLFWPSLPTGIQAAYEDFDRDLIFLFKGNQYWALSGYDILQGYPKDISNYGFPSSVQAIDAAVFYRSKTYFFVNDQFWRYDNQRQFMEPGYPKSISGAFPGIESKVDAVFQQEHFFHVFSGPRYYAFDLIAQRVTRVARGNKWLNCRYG
T6 sequence (P14780 107-707 limits assumed): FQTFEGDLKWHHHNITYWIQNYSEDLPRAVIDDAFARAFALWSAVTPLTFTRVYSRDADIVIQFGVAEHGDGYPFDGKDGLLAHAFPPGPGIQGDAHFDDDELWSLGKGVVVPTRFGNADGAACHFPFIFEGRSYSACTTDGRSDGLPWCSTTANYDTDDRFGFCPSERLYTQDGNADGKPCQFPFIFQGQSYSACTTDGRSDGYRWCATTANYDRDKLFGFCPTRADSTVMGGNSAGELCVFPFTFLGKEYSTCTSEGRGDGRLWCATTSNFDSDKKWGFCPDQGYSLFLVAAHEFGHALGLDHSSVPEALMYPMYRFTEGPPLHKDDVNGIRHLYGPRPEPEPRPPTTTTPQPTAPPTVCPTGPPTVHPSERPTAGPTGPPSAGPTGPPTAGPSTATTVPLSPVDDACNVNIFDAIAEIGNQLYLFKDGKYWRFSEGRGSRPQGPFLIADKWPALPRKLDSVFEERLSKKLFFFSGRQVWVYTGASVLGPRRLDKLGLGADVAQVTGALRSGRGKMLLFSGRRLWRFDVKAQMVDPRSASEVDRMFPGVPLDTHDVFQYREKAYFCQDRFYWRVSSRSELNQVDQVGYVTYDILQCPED

By IC50 is commonly meant the midpoint of a concentration-inhibition curve. Consider `O=C(NO)c1ccccc1CS(=O)(=O)c1ccc(Oc2ccccc2)cc1` [Example 1, N-hydroxy-2-[[(4-phenoxyphenyl)-sulfonyl]methyl]benzamide], for which the IC50 in series [1] (Inhibition Table A) is > 10000 nM.
In the case of `O=C(NO)c1ccccc1S(=O)(=O)N1CCC(Cc2ccccc2)CC1` [Example 3, N-hydroxy-2-[[4-(phenylmethyl)-1-piperidinyl]sulfonyl]benzamide], the IC50 was > 10000 nM in series [1] (Inhibition Table A), 148 nM in series [2] (Inhibition Table A) and 1000 nM in series [3] (Inhibition Table A).
As for `O=C(NO)c1ccccc1S(=O)(=O)Cc1ccc(-c2ccccc2)cc1` [Example 4, 2-[([1,11-biphenyl]-4-ylmethyl)-sulfonyl]-N-hydroxybenzamide], the IC50 in series [1] (Inhibition Table A), in series [2] (Inhibition Table A) and in series [3] (Inhibition Table A) was > 10000 nM in each case.
As for `O=C(NO)c1ccccc1NS(=O)(=O)c1ccc(Oc2ccccc2)cc1` [Example 5, N-hydroxy-2-[[(4-phenoxyphenyl)-sulfonyl]amino]benzamide], the IC50 in series [1] (Inhibition Table A) and in series [3] (Inhibition Table A) was > 10000 nM each time.
Turning to `COc1ccc(NS(=O)(=O)c2ccccc2C(=O)NO)cc1` [Example 7, N-hydroxy-2-[(4-methoxyanilino)sulfonyl]benzamide], the IC50 in series [1] (Inhibition Table A) and in series [3] (Inhibition Table A) was > 10000 nM in each case.
On to `O=C(NO)c1ccccc1S(=O)(=O)NCc1ccccc1` [Example 8, N-hydroxy-2-[(benzylamino)sulfonyl]benzamide], for which the IC50 in series [1] (Inhibition Table A) and in series [3] (Inhibition Table A) was > 10000 nM in each case.
Turning to `O=C(NO)c1ccccc1S(=O)(=O)N1CCC(c2ccccc2)CC1` [Example 9, N-Hydroxy-2-[[4-(phenyl)-1-piperidnyl]sulfonyl]benzamide], in series [1] (Inhibition Table A), the IC50 was > 10000 nM.
On to `CC(O)(C(=O)NO)c1ccccc1S(=O)(=O)N1CCC(c2ccccc2)CC1` (centres unmarked) [Example 10, N,2-dihydroxy-2-methyl-2-[(4-phenyl-1-piperidinyl)sulfonyl]benzeneacetamide], for which the IC50 in series [1] (Inhibition Table A) was > 10000 nM.
Consider `COc1ccc(C(=O)NC2CCN(S(=O)(=O)c3ccccc3C(=O)NO)C2)cc1` (centres unmarked) [Example 11, N-hydroxy-2-[[3-[(4-methoxybenzoyl)amino]-1-pyrrolidinyl]sulfonyl]benzamide], for which the IC50 in series [2] (Inhibition Table A) worked out at 2300 nM; in series [3] (Inhibition Table A) it was 2200 nM.
On to `O=C(NO)c1ccccc1S(=O)(=O)N1CCC(Oc2ccc(OC(F)(F)F)cc2)CC1` [Example 12, N-hydroxy-2-[[4-[4-(trifluoromethoxy)phenoxy]-1-piperidinyl]sulfonyl]benzamide], for which the IC50 in series [1] (Inhibition Table A) is > 10000 nM; in series [3] (Inhibition Table A), 33 nM.
`O=C(NO)c1ccccc1S(=O)(=O)N1CCC(Oc2ccc(C(F)(F)F)cc2)CC1` [Example 13, N-hydroxy-2-[[4-[4-(trifluoromethyl)phenoxy]-1-piperidinyl]sulfonyl]benzamide]: the IC50 in series [1] (Inhibition Table A) was > 10000 nM.
On to `O=C(NO)c1ccccc1S(=O)(=O)N1CCC(OCc2ccc(C(F)(F)F)cc2)CC1` [Example 14, N-hydroxy-2-[[4-[[4-(trifluoromethyl)phenyl]methoxy]-1-piperidinyl]sulfonyl]benzamide], for which the IC50 in series [1] (Inhibition Table A) was > 10000 nM; in series [2] (Inhibition Table A), 35 nM; in series [3] (Inhibition Table A), 900 nM.
Regarding `O=C(NO)c1ccccc1S(=O)(=O)Nc1ccc(Oc2ccccc2)cc1` [Example 15, N-hydroxy-2-[[(4-phenoxyphenyl)-amino]sulfonyl]benzamide], the IC50 in series [1] (Inhibition Table A) is > 10000 nM; in series [2] (Inhibition Table A), 3500 nM; in series [3] (Inhibition Table A), 9000 nM.
As for `COc1ccc(S(=O)(=O)N2CCC(Oc3ccc(C(F)(F)F)cc3)CC2)c(C(=O)NO)c1OC` [Example 16, N-hydroxy-2,3-dimethoxy-6-[[4-[4-(trifluoromethyl)phenoxy]-1-piperidinyl)sulfonyl]benzamide], in series [1] (Inhibition Table A), the IC50 was > 10000 nM.
As to `O=C(NO)c1ccccc1S(=O)(=O)N1CCC(Oc2ccc(C(F)(F)F)cc2)C1` (centres unmarked) [Example 17, N-hydroxy-2-[[3-[4-(trifluoromethyl)phenoxy]-1-pyrrolidinyl]sulfonyl]benzamide], the figures for the IC50 in series [2] (Inhibition Table A) and in series [3] (Inhibition Table A) were 1800 nM and 2000 nM, respectively.
With `O=C(NO)c1c(F)cccc1S(=O)(=O)N1CCC(Oc2ccc(C(F)(F)F)cc2)CC1` [Example 19], in series [1] (Inhibition Table A), the IC50 was > 10000 nM.
On to `COc1ccccc1-c1ccc(OC2CCN(S(=O)(=O)c3ccc(OC)c(OC)c3C(=O)NO)CC2)cc1` [Example 22], for which the IC50 in series [1] (Table B) is > 10000 nM.
The same measure, in the same setting: the value for `COCCOc1cccc(S(=O)(=O)N2CCC(Oc3ccc(C(F)(F)F)cc3)CC2)c1C(=O)NO` [Example 23, N-hydroxy-2-(2-methoxyethoxy)-6-[[4-[4-(trifluoromethyl)phenoxy]-1-piperidinyl]sulfonyl]benzamide] was > 10000 nM.
Consider `COc1ccc(S(=O)(=O)N2CCC(Sc3ccccc3)CC2)c(C(=O)NO)c1OC` [Example 24], for which the IC50 in series [4] amounted to 107 nM.
Consider `CCCCOc1ccc(N2CCN(S(=O)(=O)c3ccc(OC)c(OC)c3C(=O)NO)CC2)cc1F` [Example 25, 6-[[4-(butoxy-3-fluorophenyl)-1-piperazinyl]sulfonyl]-N-hydroxy-2,3-dimethoxybenzamide], for which the IC50 in series [1] (Table B) is > 10000 nM; in series [2] (Table B), 0.4 nM; in series [5] it was 294 nM; in series [4], 252 nM; in series [6], 22.1 nM; in series [3] (Table B) it was 8.5 nM. Also, the IC50 in series [7] is > 10000 nM.
`COc1ccc(S(=O)(=O)N2CCN(c3ccc(OC(F)(F)F)cc3)CC2)c(C(=O)NO)c1OC` [Example 26]: the IC50 was > 10000 nM in series [1] (Table B); 0.4 nM in series [2] (Table B); 1460 nM in series [5]; 7.1 nM in series [4]; 40.1 nM in series [6]; 17.9 nM in series [3] (Table B). The IC50 in series [7] came to 416 nM.
Turning to `COc1ccc(-c2ccc(OC3CCN(S(=O)(=O)c4ccc(OC)c(OC)c4C(=O)NO)CC3)cc2)cc1OC` [Example 27], the IC50 in series [1] (Table B) is > 10000 nM; in series [2] (Table B), 3.3 nM; in series [5] it was 100 nM; in series [4] it was 115 nM; in series [6], 370 nM; in series [3] (Table B) it was 2.6 nM. Besides, the IC50 in series [7] amounted to 1700 nM.
Turning to `O=C(NO)c1ccccc1S(=O)(=O)N1CCC(Oc2ccccn2)CC1` [Example 44, N-hydroxyl-2-[[4-(2-pyridinyloxy)-1-piperidinyl]sulfonyl]benzamide, monohydrochloride], in series [1] (Table B), the IC50 is > 10000 nM.
For the compound `O=C(NO)c1ccccc1S(=O)(=O)N1CCN(C(=O)c2ccccc2)CC1` [Example 53, 2-[(4-benzoyl-1-piperazinyl)sulfonyl]-N-hydroxybenzamide], the results for the IC50 in series [2] (Table B) and in series [3] (Table B) were 1000 nM and 6700 nM, respectively.
Consider `CNC(=O)[C@@H](NC(=O)[C@H](CC(C)C)[C@H](O)C(=O)NO)C(C)(C)C` [Marimastat], for which the “most common drug-related toxicity” value in series [8] (clinical trials) was “musculoskeletal pain and stiffness”. In addition, the “effect on cancer-specific antigens used as surrogate markers for biological activity” value in series [8] (meta analysis of Phase I/II data, patients with advanced, treatment-refractory solid tumors) is listed as “dose-related reduction in the rise of cancer-specific antigens”.
